Assay results taken from patent US20070082920A1, “NAD+-dependent DNA ligase inhibitors” (priority 2005, published 2007).

What was measured:
[1] = system: Staphylococcus aureus ATCC 29213; test: MIC, broth microdilution (CLSI), S. aureus; type: cell-based; details: lowest concentration inhibiting visual growth
Description: (§1) The compounds of Formulas 1-VIII were evaluated as inhibitors of NAD+-dependent DNA ligase inhibitors. Their antimicrobial activity was evaluated against bacteria using the broth microdilution method as described by Clinical Laboratory Standards Institute (formerly NCCLS). Activity was assessed against the following bacterial strains: Staphylococcus aureus ATCC 29213, Streptococcus pneumoniae ATCC 49619, Escherichia coli ATCC 25922, E. coli CGSC 5633 (ToIC mutant), Haemophilus influenzae ATCC 49766, Streptococcus pyogenes ATCC 19615, Moraxella catterhalis ATCC 25238, Enterococcus faecalis ATCC 29212. The lowest concentration of compound which inhibited visual growth of each bacterium, the minimum inhibitory concentration (MIC), was determined.

[2] = system: Streptococcus pneumoniae ATCC 49619; test: MIC, broth microdilution (CLSI), S. pneumoniae; type: cell-based
Description: as §1

[3] = system: Escherichia coli ATCC 25922; test: MIC, broth microdilution (CLSI), E. coli ATCC 25922; type: cell-based
Description: as §1

[4] = system: E. coli CGSC 5633 (ToIC mutant); test: MIC, broth microdilution (CLSI), E. coli CGSC 5633; type: cell-based, Escherichia coli; set-up: unit not given beside the values
Description: as §1

[5] = system: Enterococcus faecalis ATCC 29212; test: MIC, broth microdilution (CLSI), E. faecalis; type: cell-based; set-up: unit not given here
Description: as §1

[6] = system: Haemophilus influenzae ATCC 49766; test: MIC, broth microdilution (CLSI), H. influenzae; type: cell-based; set-up: unit not given beside the values
Description: as §1

[7] = system: Moraxella catterhalis ATCC 25238; test: MIC, broth microdilution (CLSI), M. catarrhalis; type: cell-based
Description: as §1

[8] = system: Streptococcus pyogenes ATCC 19615; test: MIC, broth microdilution (CLSI), S. pyogenes; type: cell-based
Description: as §1

[9] = Acute toxicity, Alamar blue cell viability, HepG2; type: cell-based; details: human
Description: (§2) Acute toxicity was assessed against two mammalian cell lines, HepG2 (human hepatocyte) and NIH 3T3 (mouse fibroblast). Cell viability was measured by an in vitro assay using Alamar blue. The concentration of compound which inhibited 50% of the cell growth (LC50) was determined.

[10] = Acute toxicity, Alamar blue cell viability, NIH 3T3; type: cell-based; details: mouse
Description: as §2

[11] = molecular target: DNA ligase enzyme (NAD+-dependent DNA ligase) (Streptococcus pneumoniae serotype 4, UniProt Q97QT2); test: DNA ligase AMP release assay (luciferase readout); type: biochemical; details: purified enzyme from S. pneumoniae
DNA ligase enzyme (NAD+-dependent DNA ligase), sequence (Q97QT2 whole entry): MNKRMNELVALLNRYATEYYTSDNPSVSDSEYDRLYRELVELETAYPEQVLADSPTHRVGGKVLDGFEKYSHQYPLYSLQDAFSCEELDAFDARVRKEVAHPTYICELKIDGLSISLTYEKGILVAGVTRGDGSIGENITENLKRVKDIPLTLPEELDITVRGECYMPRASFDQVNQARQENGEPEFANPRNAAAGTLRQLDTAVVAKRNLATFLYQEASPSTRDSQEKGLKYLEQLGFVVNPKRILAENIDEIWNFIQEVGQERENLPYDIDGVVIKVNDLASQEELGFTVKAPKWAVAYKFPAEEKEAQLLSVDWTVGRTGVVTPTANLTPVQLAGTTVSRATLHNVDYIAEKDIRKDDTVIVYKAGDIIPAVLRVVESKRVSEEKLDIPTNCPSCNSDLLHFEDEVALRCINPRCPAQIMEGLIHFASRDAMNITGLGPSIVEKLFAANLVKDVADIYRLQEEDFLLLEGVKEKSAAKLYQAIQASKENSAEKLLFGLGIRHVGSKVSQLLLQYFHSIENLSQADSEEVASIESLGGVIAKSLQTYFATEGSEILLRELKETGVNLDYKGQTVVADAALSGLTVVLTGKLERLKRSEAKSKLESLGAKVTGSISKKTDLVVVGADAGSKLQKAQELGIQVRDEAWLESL
Description: Activity against DNA ligase enzyme was measured using purified enzyme from S. pneumoniae. An AMP release assay was used to assess activity of compounds against the enzyme. AMP, released as a result of the ligation of oligonucleotides, is converted to ATP, which is then measured using luciferase enzyme. The concentration of compound which inhibited 50% of the ligation activity of the enzyme (IC50) was determined.

[12] = system: NAD+-dependent DNA ligase; details: specific DHFR inhibitors; background; cited from earlier work

Compound	MIC S. aureus ATCC 29213 [1]	MIC S. pneumoniae [2]	MIC E. coli ATCC 25922 [3]	MIC E. coli CGSC 5633 [4]	MIC E. faecalis [5]	MIC H. influenzae [6]	MIC M. catarrhalis [7]	MIC S. pyogenes [8]	CC50 [9]	CC50 [10]	IC50 [11]	inhibition of NAD+-dependent DNA ligase (in words) [12]
Cc1cc(N2Cc3ccccc3C2)nc2nc(N)nc(N)c12 [V-b]	16	8	64	2	8	>128	32	16	8.85 µM	8.09 µM	7.35 µM	
Cc1cc(N(C)C2CCCCC2)nc2nc(N)nc(N)c12 [IV-d]	64	8	64	0.125	2	51	16	32	23.4 µM	12.8 µM	15.2 µM	
Nc1nc(N)c2c3c(c(NCc4ccc(F)c(F)c4)nc2n1)CCCC3 [VII-a]	16	4	>128	0.5	8	64	8	32	19.2 µM	1.24 µM	17.3 µM	
Cc1c(Cc2ccccc2)c(N(C)C2CCCCC2)nc2nc(N)nc(N)c12 [II-c]	4	4	128	<0.125	2	>128	2	2	15 µM	5.13 µM	11.3 µM	
CN(c1nc2nc(N)nc(N)c2c2c1CCCC2)C1CCCCC1 [VII-b]	8	8	128	<0.125	4	64	4	4	19.2 µM	1.37 µM	5.94 µM	
Cc1cc(Nc2ccc3c(c2)OCCCO3)nc2nc(N)nc(N)c12 [III-p]	128	4	64	0.125	0.5		16		20 µM	15.6 µM	11.4 µM	
COc1cc(CN(C)c2nc3nc(N)nc(N)c3c(C)c2Cc2ccccc2)cc(OC)c1 [II-a, 2,4-diamino-5-methyl-6-benzyl-7-[(3,5-dimethoxybenzyl)methylamino]-pyrido[2,3-d]pyrimidine]	4	0.125	>128	<0.125	<0.125	>128	4	4	12.8 µM	5.57 µM		
COc1cc(CN(C)c2cc(C)c3c(N)nc(N)nc3n2)cc(OC)c1OC [IV-a]	64	4	15	<0.125	2	64	16	64			15.2 µM	
Cc1cc(NCc2ccc(Cl)c(C(F)(F)F)c2)nc2nc(N)nc(N)c12 [III-f]	8	1	16	<0.125	1	16	2	2	15.2 µM	8.32 µM		
CCCc1cc(N(C)C2CCCCC2)nc2nc(N)nc(N)c12 [IV-e]	32	2	128	0.5	1		4	1	15.1 µM	9.9 µM	80.6 µM	
Cc1c(N(C)C2CCCCC2)nc2nc(N)nc(N)c2c1C [II-e]	32	4	64	0.125	1		4 to 8	2 to 8	19 µM	10.9 µM	79.1 µM	
CN(Cc1cnc2nc(N)nc(N)c2n1)c1ccc(C(=O)N[C@@H](CCC(=O)O)C(=O)O)cc1 [methotrexate]												not to inhibit
COc1cc(Cc2cnc(N)nc2N)cc(OC)c1OC [trimethoprim]												not to inhibit
Cc1c(Cc2ccccc2)c(NCc2ccc(F)c(F)c2)nc2nc(N)nc(N)c12 [II-b]	4	4	32	0.125	1	64	2	1	14 µM	2.94 µM	12.6 µM	
CCCCc1c(NCc2ccc(F)c(F)c2)nc2nc(N)nc(N)c2c1C [II-d]	4	1	32	<0.125	2	16	2	2	17.2 µM	5.16 µM		
Cc1c(C2CCCC2)c(NCc2ccc(F)c(F)c2)nc2nc(N)nc(N)c12 [II-g]	4	4	>128	2	4	16	1	4	16.4 µM	2.67 µM		
